In patent US20240050392A1, “COMPOSITIONS AND METHODS FOR IMPROVED TREATMENT OF PLATINUM-BASED CHEMOTHERAPEUTIC RESISTANT TUMORS” (THE REGENTS OF THE UNIVERSITY OF THE COLORADO, A BODY …, priority 2021, published 2024):

Legend:
[1] = system: TCCSUP cells; assay: Intracellular cisplatin measurements using CyTOF in TCCSUP cells; assay type: cell-based, human
Method: To validate the role of LRRC8D in cisplatin import, intracellular cisplatin was measured in the TCCSUP cells. […] In contrast to the KU1919, 5637, and T24 cells (FIGS. 12C-12E), NPEPPS knockdown had very little effect on the GemCis-resistant cells (median Pt 195=28) (FIGS. 12I-12J) given that the TCCSUP-GemCis cells have a focal deletion of LRRC8D (FIGS. 9A-9B). However, when LRRC8D was overexpressed, cisplatin import was restored to the levels of the parental cell line (FIG. 12K).
shRNA-mediated knockdown experiments. Lentiviral production and transduction were carried out as follows. In brief, plasmids from the RNAi Consortium (TRC) collection (TRC construct numbers TRCN0000073838, TRCN0000073839 and TRCN0000073840) were used for targeting NPEPPS were selected based on predicted knockdown efficiency; non-targeting controls used were SHC002 and SHC016. 2 μg of target shRNA construct and 2 μg of 3:1 ratio of psPAX2 (Addgene) and pMD2.G (Addgene) were transfected into HEK293FT cells using 2 μg of Polyethylenimine (Polysciences). Lentiviral particles containing media was filtered using 0.45 μm cellulose acetate syringe filter and used for transduction. Puromycin selection was performed at doses used for CRISPR library screening or in some cases, cells were re-selected with higher doses of puromycin (10 μg/mL), in order to ensure complete elimination of non-transduced cells. Selected cells were frozen at early passage and early passage cells were used for all experiments.
Intracellular cisplatin measurements using CyTOF. Cell lines were cultured for several passages in IMDM+10% FBS. […] After dissociation, cells were counted by Trypan blue staining and then placed in separate tubes at 3×10^5 cells. […] Relative cisplatin intensity (defined by ^195Platinum isotopic mass intensity) was analyzed among nucleated ^191Iridium+^193Iridium+events defined by Boolean gating within FlowJo 10.7.1.

[2] = molecular target: T1, volume regulated anion channel (VRAC), LRRC8A and LRRC8D (Homo sapiens, UniProt Q7L1W4+Q8IWT6); details: as reported; cited from earlier work
T1 sequence (Q8IWT6 1-810): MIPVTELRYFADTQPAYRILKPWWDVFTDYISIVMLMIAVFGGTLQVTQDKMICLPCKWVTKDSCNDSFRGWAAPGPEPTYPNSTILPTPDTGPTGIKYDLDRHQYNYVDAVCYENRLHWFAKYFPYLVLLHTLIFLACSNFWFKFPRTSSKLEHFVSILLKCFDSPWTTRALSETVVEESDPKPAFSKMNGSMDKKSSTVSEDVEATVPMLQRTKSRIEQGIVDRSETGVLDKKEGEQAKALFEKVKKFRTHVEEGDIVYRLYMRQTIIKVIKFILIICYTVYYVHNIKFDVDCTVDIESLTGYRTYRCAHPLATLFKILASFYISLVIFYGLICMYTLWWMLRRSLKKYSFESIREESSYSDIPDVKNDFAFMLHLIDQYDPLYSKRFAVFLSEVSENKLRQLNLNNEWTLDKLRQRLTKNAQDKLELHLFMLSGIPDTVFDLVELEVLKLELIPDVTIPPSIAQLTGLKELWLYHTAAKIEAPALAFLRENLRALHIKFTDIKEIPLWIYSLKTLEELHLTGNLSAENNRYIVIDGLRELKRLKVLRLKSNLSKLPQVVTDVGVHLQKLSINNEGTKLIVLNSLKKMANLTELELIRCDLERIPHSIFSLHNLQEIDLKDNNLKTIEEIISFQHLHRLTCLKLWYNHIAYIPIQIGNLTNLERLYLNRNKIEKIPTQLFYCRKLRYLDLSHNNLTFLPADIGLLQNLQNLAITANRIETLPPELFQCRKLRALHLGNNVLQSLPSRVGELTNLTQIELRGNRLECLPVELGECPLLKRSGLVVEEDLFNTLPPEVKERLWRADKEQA
T1 sequence (Q7L1W4 1-858): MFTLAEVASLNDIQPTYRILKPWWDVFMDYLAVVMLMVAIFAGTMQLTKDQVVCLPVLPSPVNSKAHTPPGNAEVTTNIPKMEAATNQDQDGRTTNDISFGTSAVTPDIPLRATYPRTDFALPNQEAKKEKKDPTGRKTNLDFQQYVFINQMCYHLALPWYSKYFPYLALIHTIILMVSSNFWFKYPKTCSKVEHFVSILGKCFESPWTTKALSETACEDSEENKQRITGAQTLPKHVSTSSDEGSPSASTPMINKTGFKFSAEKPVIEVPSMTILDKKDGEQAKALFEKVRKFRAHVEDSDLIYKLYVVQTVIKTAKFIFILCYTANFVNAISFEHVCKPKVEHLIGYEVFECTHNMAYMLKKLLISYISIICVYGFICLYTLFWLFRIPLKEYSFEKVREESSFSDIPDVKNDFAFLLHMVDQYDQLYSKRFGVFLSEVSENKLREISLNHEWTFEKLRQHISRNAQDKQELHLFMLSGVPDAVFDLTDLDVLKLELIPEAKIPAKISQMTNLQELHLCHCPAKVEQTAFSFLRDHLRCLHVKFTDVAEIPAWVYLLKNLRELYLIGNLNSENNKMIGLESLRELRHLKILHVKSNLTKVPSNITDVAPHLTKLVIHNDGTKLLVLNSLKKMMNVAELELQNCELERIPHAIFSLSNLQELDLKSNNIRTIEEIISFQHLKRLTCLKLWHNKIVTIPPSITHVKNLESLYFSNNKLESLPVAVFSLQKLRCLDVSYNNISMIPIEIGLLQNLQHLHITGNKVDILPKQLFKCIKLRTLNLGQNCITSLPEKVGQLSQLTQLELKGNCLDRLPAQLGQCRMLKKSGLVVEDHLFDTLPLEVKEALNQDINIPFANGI

N.N.[Cl][Pt][Cl] [cisplatin]
intracellular cisplatin, median Pt 195 ([1]; TCCSUP parental cells): 189 | intracellular cisplatin, median Pt 195 ([1]; TCCSUP-GemCis cells): 22 | intracellular cisplatin, median Pt 195 ([1]; TCCSUP-GemCis cells, NPEPPS knockdown): 28 | share of intracellular cisplatin transported through VRAC channels [2]: 50-70%
